Measurements reported in article PMC7930286 (Heliyon, 2021).

Assays:
[1] = ABTS free radical scavenging assay; conditions: for ABTS percent inhibition (mean ± S.E.M): n = 3
[2] = DPPH free radical scavenging assay; conditions: for DPPH Percent inhibition (mean ± S.E.M): n = 3
[3] = target: α-glucosidase; assay: Inhibitory assay of α-glucosidase; format: biochemical; conditions: for Alpha-glucosidase %inhibition (mean ± SEM): n = 3
[4] = target: butyrylcholinesterase (BChE) (Homo sapiens, UniProt P06276); assay: Anticholinesterase; format: biochemical; conditions: for inhibition at 62.5 µg/mL: read-out: Percent BChE inhibition (mean ± SEM), 62.5 μg/mL; for inhibition at 125 µg/mL: read-out: Percent BChE inhibition (mean ± SEM), 125 μg/mL; for inhibition at 250 µg/mL: read-out: Percent BChE inhibition (mean ± SEM), 250 μg/mL; for inhibition at 500 µg/mL: read-out: Percent BChE inhibition (mean ± SEM), 500 μg/mL; for inhibition at 1000 µg/mL: read-out: Percent BChE inhibition (mean ± SEM), 1000 μg/mL
butyrylcholinesterase (BChE), sequence (P06276 29-602, species assumed): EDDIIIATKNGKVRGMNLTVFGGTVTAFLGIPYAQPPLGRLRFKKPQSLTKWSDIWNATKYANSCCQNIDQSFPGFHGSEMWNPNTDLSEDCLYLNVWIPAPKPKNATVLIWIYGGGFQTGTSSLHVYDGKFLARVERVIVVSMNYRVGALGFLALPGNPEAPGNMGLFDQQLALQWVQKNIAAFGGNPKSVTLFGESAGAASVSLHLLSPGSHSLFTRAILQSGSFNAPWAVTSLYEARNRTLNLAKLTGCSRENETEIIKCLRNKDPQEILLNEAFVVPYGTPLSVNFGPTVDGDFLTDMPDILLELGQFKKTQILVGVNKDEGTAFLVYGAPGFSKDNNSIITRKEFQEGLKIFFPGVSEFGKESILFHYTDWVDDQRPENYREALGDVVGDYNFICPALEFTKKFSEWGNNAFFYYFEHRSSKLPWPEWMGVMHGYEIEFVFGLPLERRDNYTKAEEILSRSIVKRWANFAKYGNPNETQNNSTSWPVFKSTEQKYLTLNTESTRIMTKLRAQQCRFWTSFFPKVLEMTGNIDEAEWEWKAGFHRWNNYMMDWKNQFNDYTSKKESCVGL

[5] = target: acetylcholinesterase (AChE) (Homo sapiens, UniProt P22303); assay: biochemical; conditions: for inhibition at 62.5 µg/mL / inhibition at 250 µg/mL / inhibition at 500 µg/mL / inhibition at 1000 µg/mL: read-out: Percent AChE inhibition (mean ± SEM)
acetylcholinesterase (AChE), sequence (P22303 32-614, species assumed): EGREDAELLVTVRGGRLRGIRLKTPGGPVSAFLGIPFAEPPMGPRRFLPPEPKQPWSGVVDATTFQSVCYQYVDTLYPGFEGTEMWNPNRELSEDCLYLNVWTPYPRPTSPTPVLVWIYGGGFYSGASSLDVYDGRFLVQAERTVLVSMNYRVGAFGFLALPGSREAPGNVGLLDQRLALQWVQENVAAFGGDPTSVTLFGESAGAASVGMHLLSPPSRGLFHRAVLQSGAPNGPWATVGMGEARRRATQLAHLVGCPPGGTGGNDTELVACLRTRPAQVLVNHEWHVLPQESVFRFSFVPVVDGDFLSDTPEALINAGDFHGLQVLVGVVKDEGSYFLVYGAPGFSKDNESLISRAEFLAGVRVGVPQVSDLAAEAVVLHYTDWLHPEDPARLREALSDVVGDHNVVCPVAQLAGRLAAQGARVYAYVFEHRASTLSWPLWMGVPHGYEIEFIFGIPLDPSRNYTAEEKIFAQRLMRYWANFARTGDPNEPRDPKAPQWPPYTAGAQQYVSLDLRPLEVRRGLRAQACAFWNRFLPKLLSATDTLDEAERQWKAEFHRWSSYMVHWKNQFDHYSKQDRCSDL

[6] = target: α-amylase; assay: Inhibitory assay of α-amylase; format: biochemical; conditions: for Alpha-amylase % inhibition (mean ± SEM): n = 3
[7] = Solubility description of isolated compounds; format: physicochemical

Row | Compound | ABTS IC50 [1] [mg/L] | ABTS percent inhibition (mean ± S.E.M) ([1]; 62.5 μg/mL) | ABTS percent inhibition (mean ± S.E.M) ([1]; 250 μg/mL) | ABTS percent inhibition (mean ± S.E.M) ([1]; 500 μg/mL) | ABTS percent inhibition (mean ± S.E.M) ([1]; 1000 μg/mL) | DPPH IC50 [2] [mg/L] | DPPH Percent inhibition (mean ± S.E.M) ([2]; 62.5 μg/mL) | DPPH Percent inhibition (mean ± S.E.M) ([2]; 125 μg/mL) | DPPH Percent inhibition (mean ± S.E.M) ([2]; 250 μg/mL) | DPPH Percent inhibition (mean ± S.E.M) ([2]; 500 μg/mL) | DPPH Percent inhibition (mean ± S.E.M) ([2]; 1000 μg/mL) | Alpha-glucosidase IC50 [3] [mg/L] | inhibition at 62.5 µg/mL ([4]; n = 3) [%] | inhibition at 125 µg/mL ([4]; n = 3) [%] | inhibition at 250 µg/mL ([4]; n = 3) [%] | inhibition at 500 µg/mL ([4]; n = 3) [%] | Alpha-amylase % inhibition (mean ± SEM) ([6]; 125 μg/mL) | Alpha-amylase % inhibition (mean ± SEM) ([6]; 250 μg/mL) | Alpha-amylase % inhibition (mean ± SEM) ([6]; 500 μg/mL) | Alpha-amylase % inhibition (mean ± SEM) ([6]; 1000 μg/mL) | further results
1 | O=C1O[C@H]([C@@H](O)CO)C(O)=C1O [Ascorbic acid, reference compound] | 39 | 52.1 ± 1.1% | 72.1 ± 0.4% | 83.1 ± 1.1% | 93.0 ± 0.7% | 38 | 52.2 ± 2.3% | 63.2 ± 1.1% | 73.8 ± 2.2% | 84.1 ± 0.4% | 93.2 ± 0.1% |  |  |  |  |  |  |  |  |  | 
2 | COc1ccc(C(=O)O)cc1OC [Compound VI, 3,4-dimethoxy benzoic acid] | 67 | 48.2 ± 1.3∗∗ % | 61.1 ± 1.4∗∗∗ % | 71.0 ± 1.6∗∗∗∗ % | 81.2 ± 1.0∗∗∗∗ % | 67 | 48.2 ± 2.3 ^ns % | 54.7 ± 2.1∗∗ % | 63.7 ± 0.8∗∗∗∗ % | 72.3 ± 0.3∗∗∗∗ % | 82.1 ± 1.2∗∗∗∗ % | 84 | 47 ± 1.1 | 53.5 ± 1.6 | 61.4 ± 0.3 | 71.1 ± 1.6 | 50.3 ± 2.4∗∗ % | 59.1 ± 1.9∗∗∗∗ % | 71.3 ± 1.7∗∗∗∗ % | 79.0 ± 3.2∗∗∗∗ % | Alpha-glucosidase %inhibition (mean ± SEM) ([3]; 125 μg/mL): 54.3 ± 1.5∗∗∗ %; Alpha-glucosidase %inhibition (mean ± SEM) ([3]; 250 μg/mL): 62.5 ± 2.4∗∗∗ %; Alpha-glucosidase %inhibition (mean ± SEM) ([3]; 500 μg/mL): 68.2 ± 1.7∗∗ %; Alpha-glucosidase %inhibition (mean ± SEM) ([3]; 1000 μg/mL): 84.6 ± 1.5∗∗∗∗ %; Percent BChE inhibition (mean ± SEM) ([4]; 1000 μg/mL, n = 3): 79.8 ± 1.4∗∗ %; IC50 [5]: 494 µM; inhibition at 62.5 µg/mL [5]: 47.2 ± 1.5%; inhibition at 250 µg/mL [5]: 62.1 ± 2%; inhibition at 500 µg/mL [5]: 71.2 ± 1.8%; inhibition at 1000 µg/mL [5]: 80.7 ± 1.1%; Alpha-amylase IC50 [6]: 112 mg/L; solubility (description) [7]: soluble in organic solvents
3 | C[C@H]1O[C@H](O[C@H]2[C@H](O)[C@@H](O)[C@@H](O[C@H]3[C@H](O)[C@@H](O)C(O)O[C@@H]3CO)O[C@@H]2CO)[C@H](O)[C@@H](O)[C@@H]1N[C@H]1C=C(CO)[C@@H](O)[C@H](O)[C@H]1O (some centres unmarked) [Acarbose, reference compound] |  |  |  |  |  |  |  |  |  |  |  |  |  |  |  |  | 57.0 ± 1.2% | 66.4 ± 1.2% | 77.1 ± 1.4% | 92.1 ± 0.8% | 
4 | CCCCCCCOc1ccc(C(=O)O)cc1 [Compound VII, 4-heptyloxy benzoic acid] | 115 | 46.1 ± 1.9∗∗ % | 62.1 ± 1.3∗∗∗ % | 71.2 ± 2.1∗∗∗∗ % | 80.1 ± 1.0∗∗∗∗ % | 118 | 46.7 ± 2.1∗∗ % | 51.9 ± 1.3∗∗ % | 62.5 ± 1.1∗∗∗∗ % | 71.2 ± 1.3∗∗∗∗ % | 80.4 ± 1.1∗∗∗∗ % | 108 | 47.2 ± 1.2 | 53.4 ± 1.1 | 62.1 | 71.1 ± 0.8 | 51.4 ± 1.5∗∗∗ % | 61.2 ± 2.2∗ % | 64.5 ± 2.8∗∗ % | 73.3 ± 1.1∗∗∗∗ % | IC50 ([4]; BChE IC50): 381 µM; inhibition at 1000 µg/mL ([4]; n = 3): 80 ± 1.1%; IC50 [5]: 377 µM; inhibition at 62.5 µg/mL [5]: 47.8 ± 1.3%; inhibition at 250 µg/mL [5]: 62.3 ± 1.1%; inhibition at 500 µg/mL [5]: 71.5 ± 1.6%; inhibition at 1000 µg/mL [5]: 80.1 ± 1.2%; Alpha-amylase IC50 [6]: 110 mg/L; solubility (description) [7]: soluble in organic solvents
5 | COc1ccc2c3c1O[C@H]1C[C@@H](O)C=C[C@@]31CCN(C)C2 [Galantamine, reference compound] |  |  |  |  |  |  |  |  |  |  |  |  | 54.1 ± 1 |  | 71.8 ± 1.5 | 81.8 ± 1.4 |  |  |  |  | inhibition at 1000 µg/mL ([4]; n = 3): 92 ± 0.8%
